Results on four molecules are retold here after US5494909A, “Substituted oxazinoisoquinoline derivatives, pharmaceutical compositions containing them and process for preparing same” (priority 1991, dated 1996).

Data set [1] has as its system excitatory amino acid receptor-dependent calcium channels. The following applies: literature; cited from earlier work.
Data set [2] deals with Veratrine-stimulated Ca uptake, synaptosomes prepared from rat brain. It is filed as biochemical, rat (Wistar).
Description: (§1) The calcium uptake-inhibitory effect of the compounds of the formula (I) according to the invention was studied on synaptosomes prepared from rat brain by using a method described in J. Neurochem.
(§2) Wistar rats weighing 180 to 200 g were decapitated and the brains were collected in ice-cold physiological saline, the cortex was removed and purified from the white matter. The tissue was homogenized by a glass-teflon potter in 10 volumes of a saccharose solution of 0.32 moles/liter concentration. The homogenate was centrifuged at 1000×g in a Janetzki K-70 centrifuge at 4° C. for 10 minutes, the supernatant was centrifuged at 12000×g in a Hitachi CR-26H centrifuge at 4° C. for 20 minutes. The sediment was suspended in a saccharose solution of 0.32 moles/liter concentration, then the protein content of the preparation was adjusted to 20 mg/ml.
Components of the solution used for incubation were as follows: […]
After placing the filter disks in glass cuvets, 10 ml of scintillation cocktail [containing 1000 ml of toluene, 400 ml of abs. ethanol, 10 ml of dioxane, 6 g of 2,5-diphenyloxazole and 0.15 g of 1,4-bis(5-phenyl-2-oxazolyl)benzene] and the radioactivity of the samples was measured by using an 1219 Rackbeta type liquid scintillation spectrophotometer (product of LKB Wallace Company).
In data set [3] the test system is Potassium-stimulated Ca uptake, synaptosomes prepared from rat brain. The data set can be described thus: Inhibition of potassium-stimulated calcium uptake into rat brain synaptosomes. The following applies: for IC50: read-out: Inhibition of Potassium-stimulated Ca uptake IC50, 60 mmoles/l KCl, rat synaptosomes, pH 7.4, 37° C., 20 seconds.
Description: as §1, §2
Components of the solution used for incubation were as follows:
Incubation solution was saturated with oxygen containing 5% by volume of carbon dioxide until reaching a pH value of 7.4. The test compounds and the synaptosome preparation in an amount corresponding to 1 mg of protein were added into the incubation solution. The final volume of incubation was 1 ml. The samples were pre-incubated at 37° C. for 20 minutes.
The calcium uptake was initiated by addition of a 45CACl2 solution of 2.8 kBq (75 nCi) activity. Potassium chloride was used in a concentration of 60 mmoles/l for the investigation of potassium-stimulated calcium uptake; sodium chloride was added in the same concentration to the control samples.
The incubation time was 20 seconds. The reaction stopped by adding 5 ml of a stopping solution containing 120 mmoles/l of sodium chloride, 5 mmoles/l of potassium chloride, 5 mmoles/l of EGTA [ethylene glycol bis(β-aminoethyl)ether-N,N, N',N'-tetraacetic acid]and 20 mmoles/l of TRIS (pH 7.4).
The nature of data set [4]: Oral toxicity (LD50). The following applies: in vivo.
Data set [5] concerns genetically hypertensive rats (SHR). The data set can be described thus: The hypobaric hypoxia test. It is filed as in vivo, rat (genetically hypertensive. Particulars: Rattus norvegicus, 1 h; male SHR rats; 22.66 kPa; one hour after administration; protected = survival time 30% longer than control. From the text:
The antihypoxic effect of the target compounds was studied on genetically hypertensive rats (SHR), which are particularly sensitive to hypoxic insults. Male rats weighing 210 to 230 g each were used for these experiments.
The hypobaric hypoxia test
The experimental animals were placed in pairs in a desiccator of 6 liters volume one hour after administration of the compound to be tested. The pressure in the desiccator was decreased to 22.66 kPa (170 mmHg) during 20 seconds. The time elapsing from this point until the last respiratory movement was measured. An animal was considered to be protected when its survival time was by 30% longer in comparison with the control group.

Where [6] appears, read: qualitative / comparison with reference drug.

Take `C[C@]12N[C@H](Cc3ccccc31)c1ccccc12` [MK-801, (+)-5-methyl-10,11-dihydro-5H-dibenzo[a,d]cyclohepten-5,10-imine]: the “effect on excitatory amino acid receptor-dependent calcium channels (in words)” value in data set [1] was “inhibit the excitatory amino acid receptor-dependent calcium channels”.
A word on the IC50: it is the point on the concentration scale where inhibition reaches its midpoint. What is called LD50 is the dose at which mortality reaches 50%. Read a high LD50 as a less toxic substance. As usually defined, the ED50 is the dose that gives a 50% effect, or the effect in half of the subjects. Low values mean an effect at a small dose, high ones a need for a large dose. Take `COc1cc2c(cc1OCc1ccccc1)CCN1C(=Nc3ccc(C)cc3)OCCC21.Cl` (stereo not shown) [compound 1507136, 9-benzyloxy-10-methoxy-4-(p-tolylimino)-1,6,7,11b-tetrahydro-2H,4H-1,3-oxazino[4,3-a]isoquinoline hydrochloride]: the “veratrine-induced calcium uptake inhibitory effect (in words)” value in data set [2] (setting [6]) is reported as “to a higher degree than flunarizine did”. The concentration for half-maximal inhibition (IC50) in data set [2] (veratrine 20 μmoles/l, rat synaptosomes, pH 7.4, 37° C., 20 seconds, read-out: Inhibition of Veratrine-stimulated Ca uptake IC50) turned out to be 290 nM; in data set [3], 23.9 µM. Moreover, the “potassium-induced calcium uptake inhibitory effect (in words)” value in data set [3] (setting [6]) is on record as “exceeds that of cinnarizine”. This molecule also registered an LD50 in data set [4] of 1400 mg/kg. The ED50 in data set [5] is 8 mg/kg.
With `Fc1ccc(C(c2ccc(F)cc2)N2CCN(C/C=C/c3ccccc3)CC2)cc1` [flunarizine], the median effective dose (ED50) in data set [5] was 50 mg/kg.
With `COCCOC(=O)C1=C(C)NC(C)=C(C(=O)OC(C)C)C1c1cccc([N+](=O)[O-])c1` (stereo not shown) [nimodipine, isopropyl 2methoxyethyl 1,4dihydro-2,6-dimethyl-4-(mnitrophenyl)-3,5-pyridinedicarboxylate, reference compound], in data set [3], the IC50 is 208 µM. In addition, the ED50 in data set [5] stood at 8 mg/kg.
